Consider 91 molecules from a melting point compilation (Tetko et al.; mined from patent text by program, amines drawn as free bases though some values may be those of a salt).

The structures appear in SMILES notation.

In turn, `CCNC(=O)OCCOc1ccc(Oc2cccc(Cl)c2)cc1Cl` came in with a melting point of 73 to 74 °C. Next, `COC(=O)C=C1NC(Cc2ccccc2)COC1=O` (stereo unspecified): 82 to 83 °C; `N[C@@H]1C(=C2OCc3ccccc32)[C@@H]2C[C@H]1C(=C1OCc3ccccc31)[C@H]2N`: 108 °C.

`CCCCCCCCCCCCc1ccc(S(=O)(=O)Nc2nnc(S(N)(=O)=O)s2)cc1` gave a melting point of 249 to 250 °C.

`C=COCCONC(=O)c1ccc(F)cc1Nc1ccc(I)cc1F` gave a melting point of 104 °C.

In turn, `NCC(=O)NCC(=O)Nc1ccc(Cl)cc1C(=O)c1ccccc1` gave a melting point of 136 to 138 °C. The value for `Cc1[nH]c2ccccc2c1C1=C(c2c(C)[nH]c3ccccc23)C(=O)N(C)C1=O` was greater than 290 °C; that for `COc1nc(NC(=O)NS(=O)(=O)c2c(C)cccc2OC)nc(OC)n1` was 163 °C. Next, `O=C(Nc1cccc2ccccc12)OCCCC(O)c1ccccc1` (stereo unspecified): 92 °C; `O=C1CCOc2c(O)cccc21`: 93 to 96 °C; `O=c1[nH]c2ccc(Cl)cc2n1C1CCCCC1`: 206 to 208 °C.

`O=C(O)c1cnc2cc(O)cc(O)c2c1` had a melting point greater than 260 °C.

With `COc1ccccc1CNc1ccc2cc(Nc3nc(C)cc(C)n3)ccc2n1`, the melting point amounted to 158 °C.

Molecule `COc1ccc(C=CC2=NNC(C)Cc3cc4c(cc32)OCO4)cc1OC` (stereo unspecified) registered a melting point of 166 to 168 °C. The value for `CN(C)C=Nc1nc(=O)n(S(=O)(=O)c2ccc(Cl)cc2)cc1F` was 207 to 210 °C. The value for `COC(=O)c1ccc2occ(-c3cccc(OC(F)(F)F)c3)c2c1` was 93 to 94 °C. Next, `CCCCCCCC(=O)c1cn(CCCC(=O)O)c2ccccc12`: 100 to 102 °C.

The molecule `COC(=O)COc1ccc(C(C)=O)cc1C` came in with a melting point of 51 to 53 °C. Next, `C/C(=C\c1ccc(C(F)(F)F)cc1)C(=O)Nc1cc(Cl)ccc1C(=O)O`: 228 to 229 °C; `CN(C)C1CCN(C2CCN(c3ncc4ncnc(Nc5ccc(F)c(Cl)c5)c4n3)CC2)CC1`: 160 to 165 °C; `Cc1cnc2ccc(-c3cccc(C(F)(F)F)c3)nn12`: 105 to 107 °C. The value for `COc1cc(Cc2cnc(N)nc2N)c2c(c1OC)OC(C)C2` (stereo unspecified) was 216 to 219 °C; that for `OCC(O)CN1CCN(c2ccc(Cl)nn2)CC1` (stereo unspecified) was 126 to 128 °C. The value for `CN1Cc2c(Cl)ncn2-c2ccc(F)cc2C1=O` was 217 to 218 °C; that for `CCCCc1nn(-c2ccccc2C(F)(F)F)c(=O)n1Cc1ccc(-c2ccccc2S(=O)(=O)NC(=O)c2ccccc2Cl)cc1F` was 88 to 90 °C; that for `Cc1cccc2c1[C@@H]1CN(C)CC[C@@H]1CC2=O` (relative stereo) was greater than 220 °C. The molecule `CC(=O)SCC(Cc1ccccc1)C(=O)Nc1ccccc1C(=O)O` (stereo unspecified) yielded a melting point of 121 to 122 °C. The value for `CCC(=O)NC1c2cc3nonc3cc2OC(C)(C)C1O` (stereo unspecified) was 203 to 205 °C; that for `Cc1ccccc1-n1ccc2c(NCCCO)nc3c(C)cccc3c21` was 135 to 137 °C. `CC(C)(C=O)Oc1ccc(Cl)cc1C#N` came in with a melting point of 85 to 88 °C.

`Oc1cccc2c1CC=CC2` had a melting point of 70.5 to 72 °C.

In turn, `COC(=O)CCSCC(=O)c1ccc2[nH]c(=O)[nH]c2c1` showed a melting point of 185 to 187 °C.

In turn, `CCCCCC/C=C/[C@@H](O)[C@H](CO)N=[N+]=[N-]` displayed a melting point of 29 to 30 °C.

Regarding `c1cc(OCCCc2nnn[nH]2)cc(OCc2ccc3ccccc3n2)c1`, the melting point was in the range of 147 to 149 °C. The value for `CCN1C(=O)N(c2c(F)c(OC)cc(OC)c2F)Cc2cnc(SC)nc21` was 165 to 168 °C; that for `O=C1CCCC(=O)N1CCCn1c2ccccc2c2nc3ccccc3nc21` was 312 to 314 °C. Consider `Cc1cc(C)nc(NC(=O)NS(=O)(=O)C2CC3C=CC2O3)n1` (stereo unspecified), for which the melting point lay in the range of 125 to 145 °C.

In turn, `CCn1nc(-c2cccs2)c(C(=O)OCCOC(C)=O)c(Nc2cncc3ccccc23)c1=O` displayed a melting point of 155 to 157 °C. The value for `CCCn1c(-c2ccc(C#C[Si](C(C)C)(C(C)C)C(C)C)cc2)nc2cc(C#N)c(C#N)cc21` was 242 to 243 °C; that for `CCCCCCCc1cc2cc(C(=O)OCC)ccc2[nH]1` was 66 to 69 °C; that for `Cn1cccc1C(=O)Nc1cccc(C=CC(=O)N2CC(CCl)c3ccc([N+](=O)[O-])cc32)c1` (stereo unspecified) was 215 °C. The value for `C=C1C(O)C(CO)OC1n1cc(I)c(=O)[nH]c1=O` (stereo unspecified) was 169 to 172 °C; that for `C#CCOc1ccc2cnn(C[C@H](C)NC(=O)OCc3ccccc3)c2c1` was 104 to 106 °C. The value for `C=CCc1[nH]cc(C#N)c1-c1ccc(Cl)cc1C(=O)c1ccccc1F` was 142 to 144 °C; that for `O=C(Nc1ccnnc1)NC1CCCCCC1` was 226 to 228 °C. Consider `Cc1cc(C(O)CS(C)(=O)=O)cc(C)c1N(C)C` (stereo unspecified), for which the melting point fell in the range of 133 to 134 °C.

As to `COc1cc(-n2cnc3cc(-c4ccc(Cl)cc4)sc3c2=O)ccc1OC[C@H](OP(=O)(O)O)C1CC1`, the melting point is 166 °C. Turning to `Cc1ccc(-c2cccc(OC3SCC(O)C(O)C3O)c2)nc1` (stereo unspecified), the melting point was in the range of 185 to 189 °C.

In turn, `CC(CCc1ccc2c(c1)OCO2)NCC(O)c1cc(C(N)=O)cs1` (stereo unspecified) had a melting point of 112 to 114 °C.

With `CC(C)(C)OC(=O)N[C@@H](Cc1ccccc1)C[C@H](O)[C@H](Cc1ccccc1)N(Cc1ccccc1)Cc1ccccc1`, the melting point is 145 to 146 °C.

As to `Nc1cc(Cl)c(OCc2ccccc2-c2ccccc2)c(Cl)c1`, the melting point was 67 to 69 °C. Take `CC#Cc1ccc([C@H]2CC[C@H](CCCCC)CC2)nn1`: the melting point lay within 103 to 104 °C. For `CC(=O)C1CCC2C3=C(C(=O)CC12C)C1(C)CCC(O)CC1CC3` (stereo unspecified), the melting point was 170 to 172 °C.

As for `Cc1ccc2c(c1C)N(c1ncnc3cnccc13)CC2`, the melting point was found to be 248 °C. The value for `CC(=O)c1cc2c(s1)C(=O)c1ccsc1C2=O` was 223 to 225 °C.

As to `CCOC(=O)C1=Cc2cc(Cl)cc(-c3ccc(Cl)cc3)c2OC1C(F)(F)F` (stereo unspecified), the melting point fell in the range of 114 to 116 °C.

`CCC(C)N1CCC(CNc2ccc(Cl)cc2C(=O)Nc2ccc(C)cn2)CC1` (stereo unspecified) came in with a melting point of 126 to 128 °C. Turning to `Cc1[nH]cnc1CC1CCc2c(C)c3ccccc3n2C1=O` (stereo unspecified), the melting point was in the range of 226 to 229 °C. The value for `COc1ccc(CN2Cc3cc(N(C)C)ccc3N=C2N)cc1` was 175 to 180 °C. `Nc1ccc(C(=O)N2CCCC(=O)c3sccc32)cc1` yielded a melting point of 216 to 218 °C. Next, `CCCCCCC(Nc1ccccc1)=C1C(=O)ON=C1C`: 83 to 84 °C; `CN(C)C(=O)N(COCCCl)c1ccc(C(F)(F)F)cc1`: 39 °C.

Molecule `O=P1(c2ccccc2)c2ccccc2CN1c1ccccc1` (stereo unspecified) displayed a melting point of 227 to 229 °C. Next, `Nc1nccc(Oc2ccc3c(C(=O)Nc4ccc(F)c(C(F)(F)F)c4)cccc3c2)n1`: 205 °C; `NC(=O)C1CN(Cc2ccccc2)CCN1` (stereo unspecified): 168 °C. The value for `CS(=O)(=S)OCc1c(F)c(F)c(F)c(F)c1F` (stereo unspecified) was 64.2 to 64.7 °C; that for `Cc1nc(-c2ccc(F)cc2)c(CO)c(C(C)C)c1C#N` was 150 °C; that for `CCc1c(Cc2cc(OC)c(OC)c(OC)c2)[nH]c(=O)c(CC(C)C)[n+]1[O-]` was 126 to 127 °C. The value for `COc1ccc(C(=O)NCCN(C)C)cc1` was 53 to 54 °C; that for `CC(=O)SCC(=O)c1cc(S(=O)(=O)N(C)C)ccc1Cl` was 84 to 88 °C. Molecule `CC(=O)NC[C@H]1CN(c2ccc(N3CCC(Cc4noc(-c5ccccc5)n4)CC3)c(F)c2)C(=O)O1` displayed a melting point of 144 to 146 °C. On to `NCCCc1ccc(OCCC2Oc3ccccc3N(Cc3ccc(Cl)cc3)C2=O)cc1` (stereo unspecified), for which the melting point is 95 to 97 °C.

Turning to `O=C(CCC(=O)Oc1ccc([N+](=O)[O-])cc1)Oc1ccc([N+](=O)[O-])cc1`, the melting point was 176 to 178 °C. Take `COc1nc2cc(Cl)c(Cl)c(NS(C)(=O)=O)c2nc1OC`: the melting point was in the range of 225 to 227 °C. The value for `COC(=O)C1=C(C(=O)OC)C2(c3ccc(Cl)cc3)C=CC1O2` (stereo unspecified) was 84 °C; that for `Cc1csc(N2CCN(Cc3ccc(C(F)(F)F)cc3)C2=O)n1` was 102 to 103 °C; that for `CSc1ccccc1C(=O)Nc1ccc(C(=O)N2Cc3ccccc3Cc3ccccc32)cc1` was 222 to 225 °C. `COc1cc(-c2cccs2)cc(OC)c1/C=C/C(=O)c1ccc(C(=O)O)cc1` gave a melting point of 256 to 258 °C. Consider `CCCN(CCC)C1Cc2cc(C)cc3ncn(c23)C1` (stereo unspecified), for which the melting point was in the range of 91 to 94 °C. Next, `CCCc1c(-c2cc(=O)c3c(O)c(CCC)c(OCC4=COC(C)(C)O4)cc3o2)ccc(OC)c1O`: 148 °C; `Cc1ccc2c(c1)C(CC(=O)NO)N(c1ccccc1)S2(=O)=O` (stereo unspecified): 150 to 155 °C; `Cc1nnc(-c2ccc3occ(-c4ccc(C#N)cc4)c3c2)o1`: 201 to 202 °C.

`CC(C)C(NC(=O)C(F)(F)F)C(=O)O` (stereo unspecified) displayed a melting point of 88 to 89 °C. Regarding `O=S(=O)(Nc1ccc(C(F)(F)F)nc1I)c1ccccc1`, the melting point was 131 °C. Next, `CCCc1noc(/C=C/c2cn(-c3ccccc3)nc2OCc2ccc(OCc3nc(-c4ccco4)oc3C)c(OC)c2)n1`: 192 to 193 °C. The value for `COc1ccc(CNC(N)=O)cc1OC` was 172 to 173 °C; that for `Oc1c(I)cc(Br)cc1I` was 122 to 124 °C; that for `CCC1C(=O)Nc2ccc(-c3ccc(C#N)n3C)cc21` (stereo unspecified) was 145 to 147 °C. Molecule `COC(=O)CCCc1cc2nc(C(F)(F)F)ccc2n1S(=O)(=O)c1cccc(OC(F)(F)F)c1` showed a melting point of 72 °C. The value for `NC(=O)c1cccc(Cn2ccc(OCc3ccc(F)cc3F)c(Cl)c2=O)c1F` was 252 to 254 °C. Molecule `O=C(Cc1c[nH]c2ccccc12)Nc1ccccc1C(=O)Nc1ccccc1` returned a melting point of 235 to 236 °C.

For orientation: melting point means the temperature of the solid-liquid transition.
